Measurements: a melting point compilation (Tetko et al.; mined from patent text by program, amines drawn as free bases though some values may be those of a salt)

SMILES	melting point
Cc1ccc(C(=O)Oc2c(N3CCCC3)c(=O)n(-c3ccccc3)c3ncccc23)cc1	216 to 217 °C
CCn1c(=O)c2c(ncn2CCCCC2CO2)n(CC)c1=O (configuration not stated)	58 to 59 °C
CC1(C)CN(Cc2ccccc2)c2cc(Cl)cc(C(=O)NC3CN4CCC3CC4)c2O1 (configuration not stated)	174 to 175 °C
CCCC(=O)c1ccc(OCCN2CCN(c3cc(Cl)nnc3Cl)CC2)cc1	140 to 141 °C
CC#CCOc1cc(Cl)ncn1	43.5 °C
CCOC(C)n1cnc(C(N)=O)n1 (configuration not stated)	163 to 166 °C
O=C(O)C1SC(C23CC4CC(CC(C4)C2)C3)=NN1C(=O)CCS (configuration not stated)	183 to 184 °C
CCCCCCC1C(=O)NC(C(=O)SCCC(=O)OC)(C(O)C2C=CCCC2)C1(C)O (configuration not stated)	64 °C
CC(C)CC(NC(=O)C(CS)CC(F)(F)F)C(=O)O (configuration not stated)	78 to 81 °C
Cn1c(=O)[nH]c(=O)c2c1ncn2CC(C)(C)O	268 to 269 °C
CC(C)c1cc2c(cc1O)C(C)(C)CCC2(C)C	79 to 80 °C
C=CCc1ccc(C=CC(=O)c2ccc(OCC=C(C)C)cc2OCC(=O)O)cc1	125 to 126 °C
Nc1ccnc(-c2nnn(Cc3cc(C(F)(F)F)cc(C(F)(F)F)c3)c2-c2ccccc2)c1C(=O)c1ccccc1Cl	156 °C
O=C(O)C(=O)CC(=O)c1cn(Cc2ccncc2)c2ccccc2c1=O	> 300 °C
COc1ccc(OCc2ccccn2)cc1/C=C/c1cc(/C=C/c2c[nH]c3ccccc23)n[nH]1	233 to 238 °C
OCc1ccc(-c2ccc(-c3cn([C@H]4CN5CCC4CC5)nn3)s2)cc1	253 °C

SMILES	melting point
CCCCC[C@H](CC(=O)NCc1c(C(C)C)cccc1C(C)C)c1cccc2c1OCO2	133 to 134 °C
CCCCc1ncc(/C=C2\C(=O)N(CC(=O)OCC)c3c(OC)cccc32)n1Cc1ccc(C(=O)OC)cc1	157 to 158 °C
Cc1ccccc1CN1CCc2ccc(C(=O)CCC(=O)N3CCC(c4ccc(Cl)cc4)CC3)cc2CC1	108 to 109 °C
CCOCc1nc2c(N)nc3ccccc3c2n1CC1(NC(C)=O)CCCCC1	178 to 180 °C
CCCOc1ccc2oc(-c3ccc4c(c3)C=C(C(=O)Nc3ccc(CN(C)C5CCOCC5)cc3)CCS4(=O)=O)cc2c1	241 to 242 °C
CCCCCCCCC(=O)N1C(=O)CCC1=O	59 to 60 °C
CC(C)(O)Cn1c(CON)nc2c(N)nc3ccccc3c21	178 to 179 °C
CN(C)C(=O)Nc1cc(O)cc(O)c1	230 °C
CC(=O)Nc1nc(C)c(S(=O)(=O)NC(C)(CO)CO)s1	201 °C
CS(=O)c1[nH]ccc1[N+](=O)[O-] (configuration not stated)	162 to 164 °C
CCNc1nc(C)c(-c2ccnc(Nc3ccc(N4CCOCC4)c(Cl)c3)n2)s1	273 to 274 °C
CN(CCF)c1nc2cc(NC(=O)c3c(C(=O)N4CCOCC4)cnn3C)ccn2n1	144 to 145 °C
CC(C)(CO)CCCNC(=O)NCCCC(C)(C)CO	81 to 82 °C
N#CN=C1SCCN1Cc1c(Cl)ccc(C(=O)O)c1Cl	208 °C
CCCCN(N)C(=O)NC	48 to 50 °C

The next lines start with the values.

melting point	SMILES
235 °C	c1ccc(Cc2ncc(-c3cnc(-c4ccccc4)nc3)[nH]2)cc1
215 to 217 °C	CCOC(=O)CC1(S(N)(=O)=O)c2cc(F)ccc2-c2ccc(F)cc21
120 °C	COc1ccnc(CSc2nc3cc(OC(F)(F)C(F)Cl)ccc3[nH]2)c1 (configuration not stated)
233 to 234 °C	CN1C(=O)SC(Cc2cn(-c3ccccc3)nc2O)C1=O (configuration not stated)
94 to 94.5 °C	O=C(O)CC1CCCc2c1n(Cc1ccc(Cl)cc1)c1c(F)cccc21 (configuration not stated)
192 to 193 °C	N#Cc1cccc2c1N(Cc1ccc(Cl)s1)C(=O)C21COc2cc3c(cc21)OCO3 (configuration not stated)
134 to 135 °C	O=C1c2ccccc2C2(c3ccc(Cl)cc3)NCCCCN12 (configuration not stated)
80 to 82 °C	Fc1ccc(OC(CCN2CCN(c3ccccc3)CC2)c2ccccc2)cc1 (configuration not stated)
80 °C	CCCCCc1ccc(-c2ccc(CC#N)cc2)cc1
177 °C	NNC(=O)c1nc(CS(=O)(=O)c2ccc(Cl)cc2)no1
61 to 63 °C	COc1ccccc1OCCCCCOc1ccc(C#N)cc1
199 to 200 °C	CCCNC(=O)C(C)Cc1ccc2cccc(Cc3ccc(C(=O)O)cc3OC)c2c1 (configuration not stated)
248 to 250 °C	O=c1[nH]c2ccccc2n1-c1cc(Cl)ccc1O
170 °C	C[C@H](NC(=O)C[C@@H](CCO)c1ccc(F)cc1)c1ccccc1
29 to 30 °C	COC(=O)CCc1cccc(-c2ccccc2)c1
182 to 184 °C	O=C1C(Nc2ccccc2)=CC(=O)c2ncccc21
211 °C	NS(=O)(=O)c1cccc(-c2cccc(-c3nc(-c4ccc(C(F)(F)F)nc4)cc(C(F)(F)F)n3)c2)c1
268 to 270 °C	Cn1cc(-c2cc3cccnc3[nH]2)c2cc(C(=O)NCCN3CCOCC3)ccc21
109 °C	C=CCOc1cccc(C(=O)c2ccccc2C(=O)O)c1
120 °C	CC(Oc1cccc(Oc2c(Cl)cc(C(F)(F)F)cc2Cl)c1)C(=O)O (configuration not stated)
60 °C	O=Cc1cccc(CF)n1

melting point	SMILES
132 °C	CCS(=O)(=O)n1cc(C(=O)c2ccn3c2CSC3c2cccnc2)c2ccc(-c3ccc(F)cc3)cc21 (configuration not stated)
180 to 183 °C	CC(=O)OC1C(C)=C(C)C(=O)N1c1nc2ccc(F)cc2s1 (configuration not stated)
248 to 250 °C	CC1(C)Oc2ccc(C#N)cc2C(n2ccc(O)cc2=O)C1O (configuration not stated)
91 to 93 °C	CCCOC(=O)c1cc(=O)c(Sc2ccc(OC)cc2)co1
180 to 182 °C	Cc1cccc(CCOc2ccc(C=C3SC(=O)NC3=O)cc2)n1
256 to 258 °C	O=C1Nc2ccccc2C1c1cc(Cl)ccc1O (configuration not stated)
209 to 210 °C	O=C(Nc1ccc2nc(CN3CCN=C3c3ccccc3)ccc2c1)c1ccc(-c2ccc(F)cc2)cc1
155 to 157 °C	O=C(O)CCC(=NO)c1ccc(-c2ccc(Cl)cc2)cc1
94 to 96 °C	CC(=O)Oc1ccc(OC(C)=O)c(-c2ccc(C)cc2)c1
190 °C	Cc1cccc(-c2nc3ccccn3c2-c2ccnc(-c3ccc(N4CCOCC4)cc3)c2)n1
69 to 71 °C	O=Cc1c(F)cc(F)cc1-c1ccc(F)cc1
149 to 154 °C	Nc1ccc2c(ccn2-c2ccncc2)c1
26 to 28 °C	CNc1c(F)cccc1C(C)=O
55 to 60 °C	Oc1ccc(Oc2cccc(-c3c(Cc4ccccc4)cnc4c(C(F)(F)F)cccc34)c2)cc1
91 °C	Cn1c(C(F)(F)F)cc(=O)n(-c2cc(OC3CC=CNC3=O)c(Cl)cc2F)c1=O (configuration not stated)
276 °C	NS(=O)(=O)c1ccc(-c2noc(-c3cnn4c(C(F)(F)F)cc(-c5ccc(C(F)(F)F)cc5)nc34)n2)s1
107 to 108 °C	O=C(NC1CCOCC1)c1cccc(-c2cccc3oc(Cc4cccc(C(F)(F)F)c4)cc23)c1
152 to 153 °C	COc1ccc(CSC(=S)N2C(CO)Cc3c([nH]c4ccccc34)C2C)cc1 (configuration not stated)
142 to 144 °C	O=C(NCCO)/C(=C/c1ccc(OC(F)(F)F)cc1)NC(=O)c1ccc(OCCC2CC2)cc1
209 to 210 °C	O=C(Nc1cccc([N+](=O)[O-])c1)NC1CC(C(=O)O)Nc2cc(Cl)cc(Cl)c21 (configuration not stated)
